Experimental findings from patent publication US11274332B2, “Methods of administering 3,4-diaminopyridine” (SERB SA, priority 2011, dated 2022) are described below.

The subject of this series is dog hepatocytes. Description: In vitro metabolism of 14C-amifampridine in dog hepatocytes (Example 2). Format: in vitro ADME. Here is the method: The objective of this hepatocyte study was to determine the extent of metabolism, complete metabolic profile and metabolite characterization of amifampridine phosphate in several species with ^14C-amifampridine phosphate for a cross species comparison. The following procedures were used to study the metabolism in rat (Example 1), dog (Example 2), and human hepatocytes (Example 3).
The cryopreserved hepatocytes were removed from storage, quickly thawed in a 37° C. water bath for 1 to 2 min, and transferred to a 50 ml tube containing pre-warmed InVitroGRO HT medium (Celsis Inc., Baltimore). The cell suspension was mixed by gentle inversion and the cells were pelleted by centrifugation at 50 to 75×g for 5 min. The supernatant medium was removed and the cells were resuspended in Williams' Medium E. Hepatocyte viability was assessed by using trypan blue exclusion. Hepatocyte density was determined by counting cells with a hemocytometer and the density was adjusted with Williams' Medium E to achieve a final density of 1,000,000 cells/mL. […] The supernatant medium was removed and the cells were resuspended in cold Williams' Medium E. The cell density was then determined using a hemocytometer and the density was adjusted with Williams' Medium E to achieve a final density of 1,000,000 cells/mL. […]

As for `Nc1ccncc1N` [3,4-DAP, 3,4-diaminopyridine], the “conversion of 3,4-DAP to its metabolite” value is “No conversion”.
